Measured values published in US9186361B2, “Compounds and compositions for the treatment of parasitic diseases” (Novartis AG, priority 2013, dated 2015).

Columns and labels:
Type in all cases: cell-based
[1] = system: Leishmania donovani axenic amastigote parasites; assay: Assay for Leishmania proliferation in vitro (axenic amastigotes, Cell TiterGlo); conditions: 48 h, 2 day incubation, read-out: L. donovani amastigotes EC50
Method: Leishmania donovani axenic amastigote parasites are grown at 37° C., 5% CO2 in media made of RPMI 1640, 4 mM L-glutamine, 20% heat inactivated FBS, 100 units/ml of penicillin and 100 μg/ml of streptomycin, 23 μM Folic Acid, 100 μM Adenosine, 22 mM D-glucose, 25 mM MES. The pH of media is adjusted to 5.5 at 37° C. using HCl. 20 μL of media is first dispensed into 384 well plates and […] of the compounds of invention in DMSO are added to the plate wells. At the same time control compounds and DMSO are added to plates to serve as the positive and negative controls, respectively. 40 μL of parasite culture (9600 parasites) are then added to the plate wells. The plates are then placed into incubators. After 2 day incubation, 20 μL of Cell TiterGlo (Promega) is added to the plate wells. The luminescence signal of each well is measured using the Envision reader (Perkin Elmer). The percentage inhibition of 50%, EC50, is calculated for each of the compounds.

[2] = system: L. donovani HU3 strain in mouse peritoneal macrophages; assay: Proliferation of L. donovani in mouse peritoneal macrophages (SybrGreen, high-content imaging); conditions: Leishmania donovani, Peritoneal macrophage, 120 h; infected mouse peritoneal macrophages, 5 days; read-out: L. donavani Macrophage EC50
Text: The activity of a compound according to the present invention for inhibition of parasitemai can be assessed by the parasite proliferation assay. The assay measures the increase in the parasite number in the assayed plate well using a DNA intercalating dye, SYBR Green I® dye (INVITROGEN) to stain Leishmania cell nuclei. It is understood that the assays illustrate the invention without in any way limiting the scope of the invention.
L. donovani HU3 strain is propagated by infecting BALBc mice through tail vein injection with 10^7 Leishmania parasites. Infected mice are allowed to develop infection during 9-11 weeks post-infection. During this time, the parasites accumulate in the infected mouse spleens to large numbers, and the infected mice serve as the source of parasites for the in vitro measurement of compound efficacies. To assay a compound for anti-leishmanial activity, peritoneal macrophages isolated from non-infected BALBc mice are seeded into 384-well plates at density 2×10^4 macrophages per well in 25 mL of medium (RPMI1640, 10% fetal serum albumin, 10 mM HEPES, 1 mM sodium pyruvate, 1% Pen/Strep). Subsequently, the seeded plates are placed into an incubator set to maintain 37° C. temperature and atmosphere with 5% CO2. The next day, Leishmania parasites are isolated from the spleens of mice infected for 9-11 weeks and 4×10^5 isolated parasites in […] of the above media are added to each plate well. Plates are then returned into incubators and infection is allowed to proceed for 24 hours. After the infection of macrophages is completed, […] of compounds of the invention in the above medium, which also contains 5% DMSO, are added to plate wells containing infected macrophages. At the same time control compounds (miltefosine and amphotericin B) and DMSO are added to plates to serve as the positive and negative controls, respectively. After the compound addition, the plates are returned into incubator and cells infected with parasites are cultured for 5 days. At the end of cultivation, […] of 8% paraformaldehyde is added to plate wells and incubated for 15 min at room temperature. Following the incubation, the paraformaldehyde from plate wells is aspirated, and […] of PBS containing 0.2% Triton X-100 is added to wells. After 15 min incubation, the solution is aspirated from wells again, and replaced with SybrGreen Dye solution in PBS (1:125,000 dilution). Infected cells are imaged with Evotec Opera high-content microscope, and the number of parasites in well is determined by counting parasite nuclei visualized by staining with SybrGreen dye. The percentage inhibition of 50%, EC50, is calculated for each compound.
The inhibitory efficacy of the compounds of the invention against proliferation of L. donovani in mouse peritoneal macrophages is provided in Table I.

[3] = system: Trypanosoma cruzi amastigotes cultured in 3T3 fibroblast cells; assay: Assay for proliferation of kinetoplastid parasite Trypanosoma cruzi (beta-galactosidase/CPRG readout); conditions: NIH3T3, 144 h, Tulahuen strain in 3T3 cells, 6 day incubation, read-out: T cruzi EC50
Text: Compounds of the invention can be assayed to measure their capacity to inhibit proliferation of kinetoplastid parasite Trypanosoma cruzi. The screening procedure is for identifying compounds with inhibitor activity against Trypanosoma cruzi amastigotes cultured in 3T3 fibroblast cells. The assay is done using the mammalian stage (amastigotes) of T. cruzi that replicates in the intracellular space of host cells. The host cells are initially infected with the culture-derived trypomastigotes that rapidly invade and then divide as amastigotes. The protocol uses the Tulahuen strain of T. cruzi that has been engineered to express the E. coli beta-galactosidase gene (Lac-Z) (Antimicr. Agents Chemoth. 40:2592, 1996). This allows for a colorimetric readout by using the substrate CPRG and an absorbance plate reader.
3T3 fibroblast cells are re-suspended in RPMI-1640 medium without phenol red medium supplemented with 10% FBS (heat inactivated), 100 μg/ml penicillin, and 100 μg/ml streptomycin. Forty μL of suspension (1,000 cells) is dispensed into 384-well plates and incubated overnight at 37° C. temperature and in atmosphere containing 5% CO2. The following day, 100 nL of compounds of the invention in DMSO are added to plate wells containing 3T3 cells. At the same time control compounds (benznidazole and nifurtimox) and DMSO are added to plates to serve as the positive and negative controls, respectively. After that, 10 μL of media containing 10,000 T. cruzi trypomastigotes are added to each plate well and plates are placed back into incubators. After 6 day incubation, 10 μL of reagent solution (0.6 mM CPRG, 0.6% NP-40 in PBS) is added to plates and incubated at room temperature for 2 hours. Absorbance is then measured on SpectraMax Gemini fluorimeter to determine relative number of T. cruzi cells present in each plate well. The percentage inhibition of 50%, EC50, is calculated for each compound.

| SMILES | EC50 [1] [µM] | EC50 [2] [µM] | EC50 [3] [µM] |
| --- | --- | --- | --- |
| CN1CCC(C(=O)Nc2cnc3nc(-c4cc(NC(=O)c5ccco5)ccc4Cl)[nH]c3c2)CC1 [Example 36, N-{2-[2-chloro-5-(furan-2-amido)phenyl]-1H-imidazo[4,5-b]pyridin-6-yl}-1-methylpiperidine-4-carboxamide] | > 25 | > 50 | 19 |
| CC(C)(C)OC(=O)NCCOC(=O)Nc1cnc2nc(-c3cc(NC(=O)c4ccco4)ccc3Cl)[nH]c2c1 [Example 16, tert-butyl N-{2-[({2-[2-chloro-5-(furan-2-amido)phenyl]-1H-imidazo[4,5-b]pyridin-6-yl}carbamoyl)oxy]ethyl}carbamate] | 5.7 | 10.1 | 4 |
| O=C(Nc1ccc(Cl)c(-c2nc3ncc(NC(=O)C4CNC4)cc3[nH]2)c1)c1ccco1 [Example 62, N-{2-[2-chloro-5-(furan-2-amido)phenyl]-1H-imidazo[4,5-b]pyridin-6-yl}azetidine-3-carboxamide] | > 25 | > 28.8 | > 20 |
| Nc1cnc2nc(-c3cccc(NC(=O)c4ccc(F)o4)c3)[nH]c2c1 [Example 79, N-(3-{6-amino-1H-imidazo[4,5-b]pyridin-2-yl}phenyl)-5-fluorofuran-2-carboxamide] | > 25 | 24.5 | 1.46 |
| O=C(CCO)Nc1cnc2nc(-c3cc(NC(=O)c4ccco4)ccc3Cl)[nH]c2c1 [Example 25, N-{4-chloro-3-[6-(3-hydroxypropanamido)-1H-imidazo[4,5-b]pyridin-2-yl]phenyl}furan-2-carboxamide] | 23.2 | > 50 | > 20 |
| O=C(Nc1cnc2nc(-c3cc(NC(=O)c4ccco4)ccc3Cl)[nH]c2c1)OCCF [Example 53, 2-fluoroethyl N-{2-[2-chloro-5-(furan-2-amido)phenyl]-1H-imidazo[4,5-b]pyridin-6-yl}carbamate] | 1.31 | 1.74 | 3.2 |
| O=C(Nc1ccc(Cl)c(-c2nc3ncc(NC(=O)C4CC(F)C4)cc3[nH]2)c1)c1ccco1 (stereo not drawn) [Example 38, N-(4-chloro-3-{6-[(3-fluorocyclobutane)amido]-1H-imidazo[4,5-b]pyridin-2-yl}phenyl)furan-2-carboxamide] | 2.13 | 3.7 | 4.4 |
| NCCC(=O)Nc1cnc2nc(-c3cc(NC(=O)c4ccc(F)o4)ccc3Cl)[nH]c2c1 [Example 73, N-{3-[6-(3-aminopropanamido)-1H-imidazo[4,5-b]pyridin-2-yl]-4-chlorophenyl}-5-fluorofuran-2-carboxamide] | > 25 | > 50 | > 20 |
| O=C(Nc1ccc(Cl)c(-c2nc3ncc([N+](=O)[O-])cc3[nH]2)c1)c1ccco1 [Example 8, N-(4-chloro-3-{6-nitro-1H-imidazo[4,5-b]pyridin-2-yl}phenyl)furan-2-carboxamide] | 0.96 | 12.4 | 1.02 |
| CC(C)CC(=O)Nc1cnc2nc(-c3cc(NC(=O)c4ccco4)ccc3Cl)[nH]c2c1 [Example 14, N-{4-chloro-3-[6-(3-methylbutanamido)-1H-imidazo[4,5-b]pyridin-2-yl]phenyl}furan-2-carboxamide] | 4.5 | 3.3 | 3.3 |
| Cc1nc(C)c(C(=O)Nc2cnc3nc(-c4cc(NC(=O)c5ccco5)ccc4Cl)[nH]c3c2)s1 [Example 5, N-{2-[2-chloro-5-(furan-2-amido)phenyl]-1H-imidazo[4,5-b]pyridin-6-yl}-2,4-dimethyl-1,3-thiazole-5-carboxamide] | 0.57 | > 50 | 1.86 |
| COc1ccc(C(=O)Nc2ccc(Cl)c(-c3nc4ncc(NC(=O)OC(C)C)cc4[nH]3)c2)o1 [Example 39, propan-2-yl N-{2-[2-chloro-5-(5-methoxyfuran-2-amido)phenyl]-1H-imidazo[4,5-b]pyridin-6-yl}carbamate] | 13.8 | 17.7 | 6.7 |
| CNc1cnc2nc(-c3cc(NC(=O)c4ccco4)ccc3Cl)[nH]c2c1 [Example 11, N-{4-chloro-3-[6-(methylamino)-1H-imidazo[4,5-b]pyridin-2-yl]phenyl}furan-2-carboxamide] | 1.84 | 16.6 | 1.27 |
| O=C(Nc1ccc(Cl)c(-c2nc3ncc(NCc4cccnc4O)cc3[nH]2)c1)c1ccco1 [Example 30] | > 25 | > 50 | > 20 |
| O=C(Nc1ccc(Cl)c(-c2nc3ncc(NC(=O)N4CCCC4)cc3[nH]2)c1)c1ccco1 [Example 12, N-{2-[2-chloro-5-(furan-2-amido)phenyl]-1H-imidazo[4,5-b]pyridin-6-yl}pyrrolidine-1-carboxamide] | 2.34 | > 26.1 | 11 |
| CS(=O)(=O)Nc1ccc(Cl)c(-c2nc3ncc(NS(C)(=O)=O)cc3[nH]2)c1 [Example 58, N-[2-(2-chloro-5-methanesulfonamidophenyl)-1H-imidazo[4,5-b]pyridin-6-yl]methanesulfonamide] | > 25 | > 50 | > 20 |
| NCC(=O)Nc1cnc2nc(-c3cc(NC(=O)c4ccco4)ccc3Cl)[nH]c2c1 [Example 33, N-{3-[6-(2-aminoacetamido)-1H-imidazo[4,5-b]pyridin-2-yl]-4-chlorophenyl}furan-2-carboxamide] | > 25 | > 50 | 19.1 |
| CCOC(=O)Nc1cnc2nc(-c3cc(NC(=O)c4ccc(C#N)o4)ccc3Cl)[nH]c2c1 [Example 61, ethyl N-{2-[2-chloro-5-(5-cyanofuran-2-amido)phenyl]-1H-imidazo[4,5-b]pyridin-6-yl}carbamate] | 2.69 | 3.13 | > 20 |
| CC(C)S(=O)(=O)Nc1ccc(Cl)c(-c2nc3ncc(NS(=O)(=O)C(C)C)cc3[nH]2)c1 [Example 59, N-{2-[2-chloro-5-(propane-2-sulfonamido)phenyl]-1H-imidazo[4,5-b]pyridin-6-yl}propane-2-sulfonamide] | > 25 | > 22.8 | > 20 |
| O=C(Nc1ccc(Cl)c(-c2nc3ncc(NC(=O)C4CCNCC4)cc3[nH]2)c1)c1ccco1 [Example 46, N-{2-[2-chloro-5-(furan-2-amido)phenyl]-1H-imidazo[4,5-b]pyridin-6-yl}piperidine-4-carboxamide] | > 25 | > 50 | > 20 |
